In brackets after ≈: the same amount, converted by molar mass. Where a name gives a salt, the structure may show the parent alone. Read-outs that look alike come from different tables or passages of the source.
Tests used:
Assay in all cases: MIC, agar dilution method in Mueller Hinton agar
Type in all cases: cell-based
E.coli 25922 = conditions: Escherichia coli
Protocol: (§1) In vitro activity was determined by minimum inhibitory concentration in a microorganism spectum by the agar dilution method in Mueller Hinton agar, inoculum = 10^4 CFU/spot.

K.pneumoniae 418 = conditions: Klebsiella pneumoniae
Protocol: as §1

E.cloacae 908SSi = conditions: Enterobacter cloacae
Protocol: as §1

S.pyogenes b 15 = conditions: Streptococcus pyogenes
Protocol: as §1

S.pneumoniae. 907 = conditions: Streptococcus pneumoniae
Protocol: as §1

S.marcescens 69438 = conditions: Serratia marcescens
Protocol: as §1

E.faecalis 6 = conditions: Enterococcus faecalis
Protocol: as §1

C.freundii 902 = conditions: Citrobacter freundii
Protocol: as §1

S.aureus 743 (MRSA) = conditions: Staphylococcus aureus
Protocol: as §1

P.vulgaris 1028 = conditions: Proteus vulgaris
Protocol: as §1

P.mirabilis 2117 = conditions: Proteus mirabilis
Protocol: as §1

C.freundii 43 = conditions: Citrobacter freundii
Protocol: as §1

P.aeruginosa ATCC27853 = conditions: Pseudomonas aeruginosa
Protocol: as §1

S.aureus 6538 = conditions: Staphylococcus aureus
Protocol: as §1

E.cloacae 908R = conditions: Enterobacter cloacae
Protocol: as §1

E.coli TEM1 = conditions: Escherichia coli
Protocol: as §1

[1] = E.coli 25922, inoculum = 10^4 CFU/spot, read-out: MIC
[2] = K.pneumoniae 418, inoculum = 10^4 CFU/spot, read-out: MIC
[3] = E.cloacae 908SSi, inoculum = 10^4 CFU/spot, read-out: MIC
[4] = S.pyogenes b 15, inoculum = 10^4 CFU/spot, read-out: MIC
[5] = S.pneumoniae. 907, inoculum = 10^4 CFU/spot, read-out: MIC
[6] = S.marcescens 69438, inoculum = 10^4 CFU/spot, read-out: MIC
[7] = E.faecalis 6, inoculum = 10^4 CFU/spot, read-out: MIC
[8] = C.freundii 902, inoculum = 10^4 CFU/spot, read-out: MIC
[9] = S.aureus 743 (MRSA), inoculum = 10^4 CFU/spot, read-out: MIC
[10] = P.vulgaris 1028, inoculum = 10^4 CFU/spot, read-out: MIC
[11] = P.mirabilis 2117, inoculum = 10^4 CFU/spot, read-out: MIC
[12] = C.freundii 43, inoculum = 10^4 CFU/spot, read-out: MIC
[13] = P.aeruginosa ATCC27853, inoculum = 10^4 CFU/spot, read-out: MIC
[14] = S.aureus 6538, inoculum = 10^4 CFU/spot, read-out: MIC
[15] = E.cloacae 908R, inoculum = 10^4 CFU/spot, read-out: MIC

Compound | MIC (E.coli 25922; [1]) | MIC (K.pneumoniae 418; [2]) | MIC (E.cloacae 908SSi; [3]) | MIC (S.pyogenes b 15; [4]) | MIC (S.pneumoniae. 907; [5]) | MIC (S.marcescens 69438; [6]) | MIC (E.faecalis 6; [7]) | MIC (C.freundii 902; [8]) | MIC (S.aureus 743 (MRSA); [9]) | MIC (P.vulgaris 1028; [10]) | MIC (P.mirabilis 2117; [11]) | MIC (C.freundii 43; [12]) | MIC (P.aeruginosa ATCC27853; [13]) | MIC (S.aureus 6538; [14]) | MIC (E.cloacae 908R; [15]) | MIC (E.coli TEM1) | further results
C[n+]1cccc(N2CC/C(=C\C3=C(C(=O)[O-])N4C(=O)[C@@H](NC(=O)/C(=N\OC5CCCC5)c5nsc(N)n5)[C@H]4CC3)C2=O)c1 [E, (6R,7S)-7-[(Z)-2-(5-Amino-[1,2,4]thiadiazol-3-yl)-cyclopentyloximino-acetylamino]-3-[(E)-1-(1-methyl-pyridin-1-ium-3-yl)-2-oxo-pyrroliden-3-ylidenemethyl]-8-oxo-1-aza-bicyclo[4.2.0]oct-2-ene-2-carboxylate] | ≤ 0.06 µg/mL | 0.25 µg/mL (≈ 0.412 µM) | ≤ 0.06 µg/mL | ≤ 0.06 µg/mL | ≤ 0.06 µg/mL | 1 µg/mL (≈ 1.65 µM) | 1 µg/mL (≈ 1.65 µM) | ≤ 0.06 µg/mL | 4 µg/mL (≈ 6.59 µM) | 32 µg/mL (≈ 52.7 µM) | 2 µg/mL (≈ 3.3 µM) | 0.5 µg/mL (≈ 0.824 µM) | 8 µg/mL (≈ 13.2 µM) | 0.5 µg/mL (≈ 0.824 µM) | 0.5 µg/mL (≈ 0.824 µM) | 1 µg/mL (≈ 1.65 µM) | 
Nc1nc(/C(=N/O)C(=O)N[C@@H]2C(=O)N3C(C(=O)[O-])=C(/C=C4\CCN(CC(F)(F)F)C4=O)CC[C@H]23)cs1.[Na+] [A, (6R,7S)-7-[(Z)-2-(2-Amino-thiazol-4-yl)-2-hydroxyimino-acetylamino]-8-oxo-3-[(E)-2-oxo-1-(2,2,2-trifluoro-ethyl)-pyrrolidin-3-ylidenemethyl]-1-aza-bicyclo[4.2.0]oct-2-ene-2-carboxylic acid sodium salt (1:1)] |  |  |  |  |  |  |  |  |  |  |  |  |  |  |  | 0.12 µg/mL | MIC (E.coli 25922; 25922): ≤ 0.06 µg/mL; MIC (K.pneumoniae 418; 418): 0.12 µg/mL; MIC (E.cloacae 908SSi; 908SSI): 2 µg/mL; MIC (S.pyogenes b 15; 15): ≤ 0.06 µg/mL; MIC (S.pneumoniae. 907): ≤ 0.06 µg/mL; MIC (S.marcescens 69438; 69438): 2 µg/mL; MIC (E.faecalis 6; 6): 8 µg/mL; MIC (C.freundii 902; 902): 0.25 µg/mL; MIC (S.aureus 743 (MRSA); MRSA): 32 µg/mL; MIC (P.vulgaris 1028; 1028): > 32 µg/mL; MIC (P.mirabilis 2117; 2117): ≤ 0.06 µg/mL; MIC (C.freundii 43; 43): 8 µg/mL; MIC (P.aeruginosa ATCC27853; ATCC27853): 32 µg/mL; MIC (S.aureus 6538; 6538): 1 µg/mL; MIC (E.cloacae 908R; 908R): > 32 µg/mL
C[n+]1cccc(N2CC/C(=C\C3=C(C(=O)[O-])N4C(=O)[C@@H](NC(=O)/C(=N\OCC(=O)O)c5csc(N)n5)[C@H]4CC3)C2=O)c1 [F, (6R,7S)-7-[(Z)-2-(2-Amino-thiazol-4-yl)-2-carboxymethoxyimino-acetylamino]-3-[(E)-1-(1-methyl-pyridin-1-ium-3-yl)-2-oxo-pyrrolidin-3-ylidenemethyl]-8-oxo-1-aza-bicyclo[4.2.0]oct-2-ene-2-carboxylate Na salt (1:1)] | ≤ 0.06 µg/mL | ≤ 0.06 µg/mL | ≤ 0.06 µg/mL | 0.12 µg/mL | ≤ 0.06 µg/mL | ≤ 0.06 µg/mL | > 32 µg/mL | ≤ 0.06 µg/mL | > 32 µg/mL | 0.12 µg/mL | ≤ 0.06 µg/mL | 2 µg/mL | 1 µg/mL | 32 µg/mL | 4 µg/mL | ≤ 0.06 µg/mL | 
C[n+]1cccc(N2CC/C(=C\C3=C(C(=O)[O-])N4C(=O)[C@@H](NC(=O)/C(=N\O)c5csc(N)n5)[C@H]4CC3)C2=O)c1 [C, (6R,7S)-7-[(Z)-2-(2-Amino-thiazol-4-yl)-2-hydroxyimino-acetylamino]-3-[(E)-1-(1-methyl-pyridin-1-ium-3-yl)-2-oxo-pyrrolidin-3-ylidenemethyl]-8-oxo-1-aza-bicyclo[4.2.0]oct-2-ene-2-carboxylate] | ≤ 0.06 µg/mL | ≤ 0.06 µg/mL | ≤ 0.06 µg/mL | ≤ 0.06 µg/mL | ≤ 0.06 µg/mL | 0.12 µg/mL (≈ 0.223 µM) | 0.5 µg/mL (≈ 0.93 µM) | ≤ 0.06 µg/mL | 8 µg/mL (≈ 14.9 µM) | 16 µg/mL (≈ 29.8 µM) | ≤ 0.06 µg/mL | 0.5 µg/mL (≈ 0.93 µM) | 4 µg/mL (≈ 7.44 µM) | 1 µg/mL (≈ 1.86 µM) | 2 µg/mL (≈ 3.72 µM) | ≤ 0.06 µg/mL | 
Nc1nc(/C(=N/O)C(=O)N[C@@H]2C(=O)N3C(C(=O)O)=C(/C=C4\CCN(c5ccc(O)cc5)C4=O)CC[C@H]23)cs1 [B, (6R,7S)-7-[(Z)-2-(Amino-thiazol-4-yl)-2-hydroxyimino-acetylamino]-3-[(E)-1-(4-hydroxy-phenyl)-2-oxo-pyrrolidin-3-ylidenemethyl]-8-oxo-1-aza-bicyclo[4.2.0]oct-2-ene-2-carboxylic acid sodium salt (1:1)] | 0.25 µg/mL | 0.12 µg/mL | 0.5 µg/mL | ≤ 0.06 µg/mL | ≤ 0.06 µg/mL | 4 µg/mL | 4 µg/mL | 0.5 µg/mL | 32 µg/mL | > 32 µg/mL |  | 32 µg/mL | 32 µg/mL | 1 µg/mL | > 32 µg/mL | 0.12 µg/mL | 
C[n+]1cccc(N2CC/C(=C\C3=C(C(=O)[O-])N4C(=O)[C@@H](NC(=O)/C(=N\O)c5nsc(N)n5)[C@H]4CC3)C2=O)c1 [D, (6R,7S)-7-[(Z)-2-(5-Amino-[1,2,4]thiadiazol-3-yl)-hydroxyimino-acetylamino]-3-[(E)-1-(1-methyl-pyridin-1-ium-3-yl)-2-oxo-pyrrolidin-3-ylidenemethyl]-8-oxo-1-aza-bicyclo[4.2.0]oct-2-ene-2-carboxylate] | 0.06 µg/mL (≈ 0.111 µM) | ≤ 0.06 µg/mL | 0.12 µg/mL (≈ 0.223 µM) | ≤ 0.06 µg/mL | ≤ 0.06 µg/mL | 0.12 µg/mL (≈ 0.223 µM) | 0.25 µg/mL (≈ 0.464 µM) | ≤ 0.06 µg/mL | 8 µg/mL (≈ 14.9 µM) | > 32 µg/mL | 0.12 µg/mL (≈ 0.223 µM) | 0.5 µg/mL (≈ 0.928 µM) | 8 µg/mL (≈ 14.9 µM) | 0.5 µg/mL (≈ 0.928 µM) | 1 µg/mL (≈ 1.86 µM) | 0.25 µg/mL (≈ 0.464 µM) | 
C[n+]1ccc(N2CC/C(=C\C3=C(C(=O)[O-])N4C(=O)[C@@H](NC(=O)/C(=N\OC5CCCC5)c5csc(N)n5)[C@H]4CC3)C2=O)cc1 [G, (6R,7S)-7-[(Z)-2-(2-Amino-thiazol-4-yl)-2-cyclopentyloxyimino-acetylamino]-3-[(E)-1-(1-methyl-pyridin-1-ium-4-yl)-2-oxo-pyrrolidin-3-ylidenemethyl]-8-oxo-1-aza-bicyclo[4.2.0]oct-2-ene-2-carboxylate] | ≤ 0.06 µg/mL | 0.25 µg/mL (≈ 0.413 µM) | ≤ 0.06 µg/mL | ≤ 0.06 µg/mL | ≤ 0.06 µg/mL | 0.5 µg/mL (≈ 0.826 µM) | 1 µg/mL (≈ 1.65 µM) | ≤ 0.06 µg/mL | 32 µg/mL (≈ 52.8 µM) | 16 µg/mL (≈ 26.4 µM) | 1 µg/mL (≈ 1.65 µM) | 1 µg/mL (≈ 1.65 µM) | 4 µg/mL (≈ 6.6 µM) | 2 µg/mL (≈ 3.3 µM) | 2 µg/mL (≈ 3.3 µM) | 0.5 µg/mL (≈ 0.826 µM) | 
